6 compounds from ChEMBL document CHEMBL1129027, “4'-Methyl derivatives of 5-MOP and 5-MOA: synthesis, photoreactivity, and photobiological activity” (J Med Chem, 1996) can be followed below.

For one experiment, the system named is HeLa. Description: Compound was evaluated for cell growth inhibition against HeLa cell line by irradiation in the presence of examined compound. It counts as functional, cell-based. The note with it: Homo sapiens, light or radiation study.
Another experiment concerns A-431. In words: Compound was evaluated for cell growth inhibition against A 431 cell line by irradiation in the presence of examined compound. It counts as functional, cell-based. As to conditions: Homo sapiens, A-431, light or radiation study.
The species entered for experiment [1] is Cavia porcellus. In words: Compound was tested for skin photosensitizing potency in guinea pig, after exposure to 50 microg cm e-2,and 20 kJ m e-2 of UVA; Absent. The format is functional, organism-based.
In a further experiment the test system is HL-60. Description: Compound was evaluated for cell growth inhibition against HL 60 cell line by irradiation in the presence of examined compound. It counts as functional, cell-based. The note with it: Homo sapiens, HL-60, light or radiation study.
For experiment [2], the system named is Nucleic Acid. Description: Rate constant of the photoreaction between compound and DNA. The format is nucleic-acid assay. As to conditions: Bos taurus.
Experiment [3] deals with Nucleic Acid. Description: Binding parameters of complexes between compound and DNA. It counts as nucleic-acid assay. The note with it: Bos taurus.
Experiment [4] is filed under the species Cavia porcellus. Description: Compound was tested for skin photosensitizing potency in guinea pig, after exposure to 50 microg cm e-2,and 20 kJ m e-2 of UVA; Medium. The format is functional, organism-based.
Experiment [5] has as its system Cavia porcellus. Description: Compound was tested for skin photosensitizing potency in guinea pig, after exposure to 50 microg cm e-2,and 20 kJ m e-2 of UVA; strong(with edema). The format is functional, organism-based.

For orientation: IC50 means the midpoint of a concentration-inhibition curve.

Active and inactive are the calls of the source. The calls are words filed in the database; no cut-off is given here.

On to `COc1cc2occc2c2oc(=O)ccc12` [ISOBERGAPTENE], for which the IC50 in the experiment with HeLa was greater than 10 µM; in the experiment on A-431, 7.72 µM; with HL-60 it was greater than 10 µM. In the experiment listed under Cavia porcellus [1], the Formation of erythema result is “inactive”.

For the compound `COc1cc2occ(C)c2c2oc(=O)c(C)cc12`, the IC50 with HeLa is 1.06 µM; in the experiment on A-431 it was 1.37 µM; in the experiment with HL-60, 0.59 µM. This compound also came in with a Rate constant in the experiment on Nucleic Acid [2] of 0.17 min⁻¹. In addition, the Formation of erythema result in the experiment filed under Cavia porcellus [1] was “inactive”. Also, the K in the experiment with Nucleic Acid [3] was found to be 3100 M⁻¹.

For `COc1c2c(C)coc2cc2oc(=O)cc(C)c12`, the figures for the IC50 with HeLa, in the experiment with A-431 and in the experiment with HL-60 were 1.76 µM, 1.35 µM and 0.67 µM, respectively. This compound displayed a Rate constant in the experiment with Nucleic Acid [2] of 2.1 min⁻¹. In the experiment filed under Cavia porcellus [1], the Formation of erythema entry is “inactive”. In the experiment on Nucleic Acid [3], this compound showed a K of 630 M⁻¹.

On to `COc1c2cc(C)c(=O)oc2cc2occ(C)c12`, for which the concentration for half-maximal inhibition (IC50) in the experiment with HeLa was 6.83 µM; in the experiment on A-431, 7.75 µM; with HL-60, 2.72 µM. Also, the Formation of erythema result in the experiment filed under Cavia porcellus [4] is recorded as “Medium”. In the experiment on Nucleic Acid [2], this compound displayed a Rate constant of 0.32 min⁻¹. Also, the K in the experiment with Nucleic Acid [3] was determined as 920 M⁻¹.

As for `COc1cc2occ(C)c2c2oc(=O)cc(C)c12`, the values for the IC50 in the experiment with HeLa, with A-431 and in the experiment with HL-60 were 1.26 µM, 1.32 µM and 0.69 µM, respectively. Further, the Rate constant in the experiment with Nucleic Acid [2] came to 2.2 min⁻¹. The Formation of erythema entry in the experiment filed under Cavia porcellus [1] was “inactive”. For the same compound, in the experiment with Nucleic Acid [3], the K was 3700 M⁻¹.

For `COc1c2occc2cc2ccc(=O)oc12` [METHOXSALEN], in the experiment with Cavia porcellus [5], the Formation of erythema result is “Active”. Moreover, the IC50 in the experiment with HeLa was determined as 3.16 µM; with A-431, 2.48 µM; in the experiment on HL-60, 0.75 µM.
